Values quoted from earlier work, collected in patent US20100008923A1, “Organic Compounds” (Novartis AG, priority 2006, published 2010).

How the values were obtained:
[1] = for Potential side effects at upper limits: at upper limit of daily intake
HDAC = settings: Kwon et al. (1998)

Row | Compound | Potential side effects at upper limits [1] | Upper limit of daily intake [1] | HDAC inhibition (HDAC)
1 | O=C(O)c1cccnc1 [B3, nicotinic acid] | Liver problems | Above 3000 mg | 
2 | Cc1ncc(CO)c(CO)c1O [B6, pyridoxine] |  | Above 100 mg | 
3 | Nc1nc2ncc(CNc3ccc(C(=O)N[C@@H](CCC(=O)O)C(=O)O)cc3)nc2c(=O)[nH]1 [B9, folic acid] | No known |  | 
4 | cyanocobalamin [B12] | No known |  | 
5 | depudecin |  |  | inhibit HDAC at micromolar concentrations
